Assay results as given in PubChem BioAssay (NCI).
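The compound was tested at five concentrations on cells cultured in 96-well plates, with a 48-hour exposure period. Here, GI50 denotes the concentration required for 50% inhibition of growth. TGI marks complete inhibition of growth.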

Assays:
Assay in all cases: NCI anticancer screen, dose series, 48 h
SK-MEL-28 melanoma = system: SK-MEL-28 melanoma
IGROV1 ovarian = system: IGROV1 ovarian
SF-539 CNS = system: SF-539 CNS
SF-268 CNS = system: SF-268 CNS
K-562 leukemia = system: K-562 leukemia
HS 578T breast = system: HS 578T breast
OVCAR-3 ovarian = system: OVCAR-3 ovarian
SF-295 CNS = system: SF-295 CNS
CCRF-CEM leukemia = system: CCRF-CEM leukemia
SNB-75 CNS = system: SNB-75 CNS
A498 renal = system: A498 renal
786-0 renal = system: 786-0 renal
SK-MEL-2 melanoma = system: SK-MEL-2 melanoma
NCI-H226 lung = system: NCI-H226 lung
HOP-62 NSCLC = system: HOP-62 NSCLC
OVCAR-5 ovarian = system: OVCAR-5 ovarian
PC-3 prostate = system: PC-3 prostate
KM12 colon = system: KM12 colon
HCT-15 colon = system: HCT-15 colon
HL-60(TB) leukemia = system: HL-60(TB) leukemia
HOP-92 NSCLC = system: HOP-92 NSCLC
CAKI-1 renal = system: CAKI-1 renal
HCC-2998 colon = system: HCC-2998 colon
A549 NSCLC = system: A549 NSCLC
UO-31 renal = system: UO-31 renal
DU-145 prostate = system: DU-145 prostate
COLO 205 colon = system: COLO 205 colon
TK-10 renal = system: TK-10 renal
SN12C renal = system: SN12C renal
NCI-H522 lung = system: NCI-H522 lung
U251 CNS = system: U251 CNS
SNB-19 CNS = system: SNB-19 CNS
RXF 393 renal = system: RXF 393 renal
MDA-MB-231 breast = system: MDA-MB-231 breast
SW-620 colon = system: SW-620 colon
M14 melanoma = system: M14 melanoma
NCI-H23 lung = system: NCI-H23 lung
OVCAR-8 ovarian = system: OVCAR-8 ovarian
ACHN renal = system: ACHN renal
BT-549 breast = system: BT-549 breast
UACC-62 melanoma = system: UACC-62 melanoma
EKVX NSCLC = system: EKVX NSCLC
LOX IMVI melanoma = system: LOX IMVI melanoma
T-47D breast = system: T-47D breast
MALME-3M melanoma = system: MALME-3M melanoma
NCI/ADR-RES ovarian = system: NCI/ADR-RES ovarian
OVCAR-4 ovarian = system: OVCAR-4 ovarian
MDA-MB-468 breast = system: MDA-MB-468 breast
MOLT-4 leukemia = system: MOLT-4 leukemia
UACC-257 melanoma = system: UACC-257 melanoma
SK-OV-3 ovarian = system: SK-OV-3 ovarian
MDA-MB-435 = system: MDA-MB-435
HT29 colon = system: HT29 colon
SK-MEL-5 melanoma = system: SK-MEL-5 melanoma
HCT-116 colon = system: HCT-116 colon
MCF7 breast = system: MCF7 breast

O=C(NN1C(=O)/C(=C/C=C/c2ccc([N+](=O)[O-])o2)SC1=S)c1ccncc1
GI50 (SK-MEL-28 melanoma): 1540 nM
TGI (SK-MEL-28 melanoma): 2980 nM
GI50 (IGROV1 ovarian): 1390 nM
TGI (IGROV1 ovarian): 2700 nM
GI50 (SF-539 CNS): 402 nM
TGI (SF-539 CNS): 1450 nM
GI50 (SF-268 CNS): 1690 nM
TGI (SF-268 CNS): 3950 nM
GI50 (K-562 leukemia): 294 nM
TGI (K-562 leukemia): > 100000 nM
GI50 (HS 578T breast): 1740 nM
TGI (HS 578T breast): 8200 nM
GI50 (OVCAR-3 ovarian): 1280 nM
TGI (OVCAR-3 ovarian): 3010 nM
GI50 (SF-295 CNS): 1760 nM
TGI (SF-295 CNS): 3270 nM
GI50 (CCRF-CEM leukemia): 346 nM
TGI (CCRF-CEM leukemia): 3570 nM
GI50 (SNB-75 CNS): 1330 nM
TGI (SNB-75 CNS): 7000 nM
GI50 (A498 renal): 17100 nM
TGI (A498 renal): 31000 nM
GI50 (786-0 renal): 960 nM
TGI (786-0 renal): 2390 nM
GI50 (SK-MEL-2 melanoma): 584 nM
TGI (SK-MEL-2 melanoma): 2020 nM
GI50 (NCI-H226 lung): 1190 nM
TGI (NCI-H226 lung): 4020 nM
GI50 (HOP-62 NSCLC): 1580 nM
TGI (HOP-62 NSCLC): 3140 nM
GI50 (OVCAR-5 ovarian): 1900 nM
TGI (OVCAR-5 ovarian): 3380 nM
GI50 (PC-3 prostate): 1930 nM
TGI (PC-3 prostate): 4960 nM
GI50 (KM12 colon): 1630 nM
TGI (KM12 colon): 4010 nM
GI50 (HCT-15 colon): 184 nM
TGI (HCT-15 colon): 404 nM
GI50 (HL-60(TB) leukemia): 1920 nM
TGI (HL-60(TB) leukemia): 4830 nM
GI50 (HOP-92 NSCLC): 1650 nM
TGI (HOP-92 NSCLC): 3350 nM
GI50 (CAKI-1 renal): 1470 nM
TGI (CAKI-1 renal): 2820 nM
GI50 (HCC-2998 colon): 1770 nM
TGI (HCC-2998 colon): 3190 nM
GI50 (A549 NSCLC): 2860 nM
TGI (A549 NSCLC): 10800 nM
GI50 (UO-31 renal): 1160 nM
TGI (UO-31 renal): 2390 nM
GI50 (DU-145 prostate): 1960 nM
TGI (DU-145 prostate): 4800 nM
GI50 (COLO 205 colon): 1520 nM
TGI (COLO 205 colon): 2960 nM
GI50 (TK-10 renal): 1630 nM
TGI (TK-10 renal): 3030 nM
GI50 (SN12C renal): 369 nM
TGI (SN12C renal): 1620 nM
GI50 (NCI-H522 lung): 189 nM
TGI (NCI-H522 lung): 414 nM
GI50 (U251 CNS): 1030 nM
TGI (U251 CNS): 2660 nM
GI50 (SNB-19 CNS): 1800 nM
TGI (SNB-19 CNS): 3930 nM
GI50 (RXF 393 renal): 1260 nM
TGI (RXF 393 renal): 2650 nM
GI50 (MDA-MB-231 breast): 655 nM
TGI (MDA-MB-231 breast): 1940 nM
GI50 (SW-620 colon): 274 nM
TGI (SW-620 colon): 739 nM
GI50 (M14 melanoma): 547 nM
TGI (M14 melanoma): 1930 nM
GI50 (NCI-H23 lung): 1230 nM
TGI (NCI-H23 lung): 2670 nM
GI50 (OVCAR-8 ovarian): 354 nM
TGI (OVCAR-8 ovarian): 3220 nM
GI50 (ACHN renal): 1460 nM
TGI (ACHN renal): 2770 nM
GI50 (BT-549 breast): 495 nM
TGI (BT-549 breast): 1660 nM
GI50 (UACC-62 melanoma): 377 nM
TGI (UACC-62 melanoma): 1450 nM
GI50 (EKVX NSCLC): 1480 nM
TGI (EKVX NSCLC): 2890 nM
GI50 (LOX IMVI melanoma): 203 nM
TGI (LOX IMVI melanoma): 440 nM
GI50 (T-47D breast): 1730 nM
TGI (T-47D breast): 4160 nM
GI50 (MALME-3M melanoma): 240 nM
TGI (MALME-3M melanoma): 541 nM
GI50 (NCI/ADR-RES ovarian): 1420 nM
TGI (NCI/ADR-RES ovarian): 7080 nM
GI50 (OVCAR-4 ovarian): 1620 nM
TGI (OVCAR-4 ovarian): 3270 nM
GI50 (MDA-MB-468 breast): 1200 nM
TGI (MDA-MB-468 breast): 2640 nM
GI50 (MOLT-4 leukemia): 403 nM
TGI (MOLT-4 leukemia): 2210 nM
GI50 (UACC-257 melanoma): 1530 nM
TGI (UACC-257 melanoma): 3310 nM
GI50 (SK-OV-3 ovarian): 3030 nM
TGI (SK-OV-3 ovarian): 9270 nM
GI50 (MDA-MB-435): 634 nM
TGI (MDA-MB-435): 2220 nM
GI50 (HT29 colon): 1650 nM
TGI (HT29 colon): 3540 nM
GI50 (SK-MEL-5 melanoma): 1050 nM
TGI (SK-MEL-5 melanoma): 2240 nM
GI50 (HCT-116 colon): 239 nM
TGI (HCT-116 colon): 565 nM
GI50 (MCF7 breast): 451 nM
TGI (MCF7 breast): 2070 nM
